The values below come from patent US20260242352A1, “INHIBITION OF SHIP1 AS A THERAPEUTIC STRATEGY FOR THE TREATMENT OF ALZHEIMER'S DISEASE” (The Trustees of Indiana University, priority 2022, published 2026).

For the assay, the target named is T1, SHIP1 (Homo sapiens, UniProt Q92835).
T1 sequence (Q92835 396-858): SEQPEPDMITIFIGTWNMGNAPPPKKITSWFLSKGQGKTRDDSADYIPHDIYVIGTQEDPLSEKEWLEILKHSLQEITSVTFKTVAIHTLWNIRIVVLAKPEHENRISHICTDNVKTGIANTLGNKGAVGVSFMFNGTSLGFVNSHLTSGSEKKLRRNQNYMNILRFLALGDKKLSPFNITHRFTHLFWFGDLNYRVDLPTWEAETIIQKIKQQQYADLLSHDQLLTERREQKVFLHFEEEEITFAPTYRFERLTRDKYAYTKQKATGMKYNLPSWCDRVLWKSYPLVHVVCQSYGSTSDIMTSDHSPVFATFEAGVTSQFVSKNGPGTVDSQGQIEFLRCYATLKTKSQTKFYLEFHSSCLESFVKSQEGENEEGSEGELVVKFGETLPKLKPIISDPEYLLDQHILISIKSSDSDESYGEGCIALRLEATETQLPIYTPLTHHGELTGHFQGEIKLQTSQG
The assay can be described thus: Malachite green enzyme assay. The assay is classed as biochemical. The note with it: Table 1; PI(3,4,5)P3-diC8 52 μM, enzyme 10 nM, SHIP1 Ptase-C2, 25° C., pH7.4; geometric mean; read-out: SHIP1 IC50 μM (n). From the text: The inventors have performed a screen of 50K compounds at the SHIP1 phosphatase, analyzed a publicly available fragment-based screen, and evaluated inhibitors reported in the literature. They utilized the malachite green assay with PtdIns(3,4,5)P3-diC8 and SHIP1 Ptase-C2 to measure inhibitory potency. A Cellular Thermal Shift Assay was used to confirm target engagement in cells. A phosphoAKT assay was used to provide additional evidence of on-target activity. A high-content imaging assay measuring phagocytosis, cell number, and nuclear intensity was implemented using the BV2 and HMC3 cell lines to characterize cellular pharmacology and cytotoxicity. […] Inhibitors predicted to have drug-like properties were subjected to assays measuring solubility, cellular permeability, and mouse microsomal stability. A physiological based pharmacokinetic model was compared to measured exposure in vivo for select compounds upon oral administration in mice.
Malachite Green Enzyme Assay. […] Compounds diluted in DMSO were added to 384-well plates. Enzyme solution was added. After a 20 min incubation period, the reaction was initiated by addition of PI(3,4,5)P3-diC8. Final compound concentrations ranged from 50 nM to 950 μM. Final reaction concentrations for the PI(3,4,5)P3-diC8 substrate and the enzyme were 52 μM and 10 nM respectively. The reaction was quenched after 10 min by adding Malachite BioMol Green (Enzo Lifesciences, PA, USA). Plates were then incubated for 30 min at room temperature. Absorbance (620 nm) was measured using a SpectraMax Me5 Microplate Reader (Molecular Devices, LLC, USA). IC50 values were calculated by fitting absorbance versus inhibitor concentration.
Compounds diluted in DMSO were added to 384-well plates. Enzyme solution was added. After a 20 min incubation period, the reaction was initiated by addition of PI(3,4,5)P3-diC8. Final compound concentrations ranged from 50 nM to 950 μM. Final reaction concentrations for the PI(3,4,5)P3-diC8 substrate and the enzyme were 52 μM and 10 nM respectively. The reaction was quenched after 10 min by adding Malachite BioMol Green (Enzo Lifesciences, PA, USA). Plates were then incubated for 30 min at room temperature. Absorbance (620 nm) was measured using a SpectraMax Me5 Microplate Reader (Molecular Devices, LLC, USA). IC50 values were calculated by fitting absorbance versus inhibitor concentration and are reported as the geometric mean and standard error of mean with the number of repeats (n) indicated. Compounds and activities are as depicted in tables 1 and 2 above.
For the compound `CC(C)(C)OC(=O)N1CCC(n2cc(-c3cncc(OCc4ccccc4F)c3)cn2)CC1` [Compound 2, tert-butyl 4-(4-(5-((2-fluorobenzyl)oxy)pyridin-3-yl)-1H-pyrazol-1-yl)piperidine-1-carboxylate], the IC50 – broadly, the concentration that gives 50% inhibition – turned out to be 81.9 µM. As for `Cc1ccccc1COc1cncc(-c2cnn(C3CCN(C(=O)OC(C)(C)C)CC3)c2)c1` [Compound 3, tert-butyl 4-(4-(5-((2-methylbenzyl)oxy)pyridin-3-yl)-1H-pyrazol-1-yl)piperidine-1-carboxylate], the IC50 stood at 116 µM. `CC(C)(C)OC(=O)N1CCC(n2cc(-c3cncc(OCc4ccccc4)c3)cn2)CC1` [Compound 4, tert-butyl 4-(4-(5-(benzyloxy)pyridin-3-yl)-1H-pyrazol-1-yl)piperidine-1-carboxylate]: the IC50 stood at 90.3 µM.

For the compound `CC(C)(C)OC(=O)N1CCC(n2cc(-c3cncc(OCc4c(Cl)cccc4Cl)c3)cn2)CC1` [Compound 5, tert-butyl 4-(4-(5-((2,6-dichlorobenzyl)oxy)pyridin-3-yl)-1H-pyrazol-1-yl)piperidine-1-carboxylate], the half-maximal inhibitory concentration (IC50) amounted to 35.7 µM. Take `CC(C)(C)OC(=O)N1CCC(n2cc(-c3cncc(OCc4ccc(Br)cc4)c3)cn2)CC1` [Compound 7, tert-butyl 4-(4-(5-((4-bromobenzyl)oxy)pyridin-3-yl)-1H-pyrazol-1-yl)piperidine-1-carboxylate]: the IC50 stood at 57 µM.

`Cl.Clc1ccccc1COc1cncc(-c2cnn(C3CCNCC3)c2)c1` [Compound 9, 3-((2-chlorobenzyl)oxy)-5-(1-(piperidin-4-yl)-1H-pyrazol-4-yl)pyridine hydrochloride]: the 50% inhibitory concentration (IC50) came out at 302 µM. On to `Cl.Clc1ccc(COc2cncc(-c3cnn(C4CCNCC4)c3)c2)c(Cl)c1` [Compound 10, 3-((2,4-dichlorobenzyl)oxy)-5-(1-(piperidin-4-yl)-1H-pyrazol-4-yl)pyridine hydrochloride], for which the IC50 was determined as 286 µM. With `CC(C)(C)CC(=O)N1CCC(n2cc(-c3cncc(OCc4ccccc4Cl)c3)cn2)CC1` [Compound 16, 1-(4-(4-(5-((2-chlorobenzyl)oxy)pyridin-3-yl)-1H-pyrazol-1-yl)piperidin-1-yl)-3,3-dimethylbutan-1-one], the concentration for half-maximal inhibition (IC50) is 102 µM. Under `C[C@@H](Oc1cncc(-c2cnn(C3CCNCC3)c2)c1)c1ccccc1Cl` [Compound 22, (R)-3-(1-(2-chlorophenyl)ethoxy)-5-(1-(piperidin-4-yl)-1H-pyrazol-4-yl)pyridine] stands 152 µM; under `Cc1ccccc1COc1cncc(-c2cnn(C3CCNCC3)c2)c1` [Compound 25, 3-[(2-Methylphenyl)methoxy]-5-[1-(piperidin-4-yl)-1H-pyrazol-4-yl]pyridine], 851 µM. Consider `Clc1ccccc1COc1cncc(-c2ccn(C3CCNCC3)n2)c1` [Compound 26, 3-((2-chlorobenzyl)oxy)-5-(1-(piperidin-4-yl)-1H-pyrazol-3-yl)pyridine], for which the IC50 came to 690 µM. Then `Clc1ccccc1COc1cncc(-n2ccc(C3CCNCC3)n2)c1` [Compound 27, 3-((2-chlorobenzyl)oxy)-5-(3-(piperidin-4-yl)-1H-pyrazol-1-yl)pyridine], with 332 µM; and `Clc1ccccc1COc1cncc(-n2cc(C3CCNCC3)cn2)c1` [Compound 28, 3-((2-chlorobenzyl)oxy)-5-(4-(piperidin-4-yl)-1H-pyrazol-1-yl)pyridine], with 601 µM. With `Clc1ccccc1COc1cccc(-c2cnn(C3CCNCC3)c2)c1` [Compound 29, 4-(4-(3-((2-chlorobenzyl)oxy)phenyl)-1H-pyrazol-1-yl)piperidine], the IC50 was determined as 186 µM.
